Measured values from ChEMBL document CHEMBL3227963, “Synthesis and antitumor activity of 4'-O-methyldaunorubicin, 4'-O-methyladriamycin, and their 4'-epi analogues” (J Med Chem, 1979).

How the values were obtained:
[1] = tested on: P388; assay: Antitumor activity against mouse P388 cells allografted in mouse assessed as average survival time at 2.9 mg/kg, ip relative to untreated control; format: functional; conditions: route intraperitoneal
[2] = tested on: P388; assay: Antitumor activity against mouse P388 cells allografted in ip dosed mouse assessed as optimal dose; format: functional
[3] = tested on: Mus musculus; assay: Toxicity in mouse allografted with mouse P388 cells at 2.9 mg/kg, ip; format: organism-based; parameters: dose 2.9 mg/kg, route intraperitoneal; conditions: in vivo
[4] = tested on: L1210; assay: Antitumor activity against mouse L1210 cells allografted in mouse assessed as average survival time at 4.4 mg/kg, ip relative to untreated control; format: functional; conditions: route intraperitoneal
[5] = tested on: L1210; assay: Antitumor activity against mouse L1210 cells allografted in mouse assessed as average survival time at 6.6 mg/kg, ip relative to untreated control; format: functional; conditions: route intraperitoneal
[6] = tested on: Mus musculus; assay: Toxicity in mouse allografted with mouse P388 cells at 6.6 mg/kg, ip; format: organism-based; parameters: dose 6.6 mg/kg, route intraperitoneal; conditions: in vivo
[7] = tested on: P388; assay: Antitumor activity against mouse P388 cells allografted in mouse assessed as average survival time at 6.6 mg/kg, ip relative to untreated control; format: functional; conditions: route intraperitoneal
[8] = tested on: L1210; assay: Antitumor activity against mouse L1210 cells allografted in mouse assessed as average survival time at 10 mg/kg, ip relative to untreated control; format: functional; conditions: route intraperitoneal
[9] = tested on: P388; assay: Antitumor activity against mouse P388 cells allografted in mouse assessed as average survival time at 20 mg/kg, ip relative to untreated control; format: functional; conditions: route intraperitoneal
[10] = tested on: Mus musculus; assay: Toxicity in mouse allografted with mouse P388 cells at 20 mg/kg, ip; format: organism-based; parameters: dose 20 mg/kg, route intraperitoneal; conditions: in vivo
[11] = tested on: L1210; assay: Antitumor activity against mouse L1210 cells allografted in mouse assessed as average survival time at 22.5 mg/kg, ip relative to untreated control; format: functional; conditions: route intraperitoneal
[12] = tested on: L1210; assay: Antitumor activity against mouse L1210 cells allografted in mouse assessed as average survival time at 15 mg/kg, ip relative to untreated control; format: functional; conditions: route intraperitoneal
[13] = tested on: P388; assay: Antitumor activity against mouse P388 cells allografted in mouse assessed as average survival time at 4.4 mg/kg, ip relative to untreated control; format: functional; conditions: route intraperitoneal
[14] = tested on: Mus musculus; assay: Toxicity in mouse allografted with mouse P388 cells at 4.4 mg/kg, ip; format: organism-based; parameters: dose 4.4 mg/kg, route intraperitoneal; conditions: in vivo

Question: For `COc1cccc2c1C(=O)c1c(O)c3c(c(O)c1C2=O)C[C@@](O)(C(C)=O)C[C@@H]3O[C@H]1C[C@H](N)[C@H](OC)[C@H](C)O1`, which T/C [1] is on record?
Answer: The T/C was 156%.

Question: What about the Optimal dose [2] of the same compound?
Answer: The Optimal dose was 2.9 mg/kg.

Question: What about the Activity [3] of the same compound?
Answer: Its Activity is “Non-toxic”.

Question: How did the T/C [4] turn out when `COc1cccc2c1C(=O)c1c(O)c3c(c(O)c1C2=O)C[C@@](O)(C(=O)CO)C[C@@H]3O[C@H]1C[C@H](N)[C@H](OC)[C@H](C)O1` was run?
Answer: Its T/C is 287%.

Question: And the T/C [5]?
Answer: The T/C was 231%.

Question: And the Activity [6]?
Answer: Its Activity is “Non-toxic”.

Question: What about the Optimal dose [2] of the same compound?
Answer: Its Optimal dose is 6.6 mg/kg.

Question: And the T/C [7]?
Answer: Its T/C is 270%.

Question: What about the T/C [8] of the same compound?
Answer: The T/C was 62%.

Question: What does the source list for `COc1cccc2c1C(=O)c1c(O)c3c(c(O)c1C2=O)C[C@@](O)(C(C)=O)C[C@@H]3O[C@H]1C[C@H](N)[C@@H](OC)[C@H](C)O1`?
Answer: T/C [9]: 174%; Activity [10]: Non-toxic; Optimal dose [2]: 20 mg/kg

Question: How did the T/C [11] turn out when `COc1cccc2c1C(=O)c1c(O)c3c(c(O)c1C2=O)C[C@@](O)(C(=O)CO)C[C@@H]3O[C@H]1C[C@H](N)[C@@H](OC)[C@H](C)O1` was run?
Answer: The T/C was 87%.

Question: What about the T/C [5] of the same compound?
Answer: Its T/C is 169%.

Question: And the T/C [12]?
Answer: Its T/C is 181%.

Question: And the T/C [8]?
Answer: Its T/C is 187%.

Question: For `COc1cccc2c1C(=O)c1c(O)c3c(c(O)c1C2=O)C[C@@](O)(C(C)=O)C[C@@H]3O[C@H]1C[C@H](N)[C@H](O)[C@H](C)O1` [DAUNORUBICIN], which T/C [1] is on record?
Answer: The T/C was 169%.

Question: What about the Optimal dose [2] of the same compound?
Answer: Its Optimal dose is 2.9 mg/kg.

Question: What about the Activity [3] of the same compound?
Answer: The Activity was “Non-toxic”.

Question: For `COc1cccc2c1C(=O)c1c(O)c3c(c(O)c1C2=O)C[C@@](O)(C(=O)CO)C[C@@H]3O[C@H]1C[C@H](N)[C@H](O)[C@H](C)O1` [DOXORUBICIN], which T/C [4] is on record?
Answer: Its T/C is 169%.

Question: And the T/C [13]?
Answer: Its T/C is 254%.

Question: And the Activity [14]?
Answer: The Activity was “Non-toxic”.

Question: What about the T/C [5] of the same compound?
Answer: Its T/C is 175%.

Question: And the Optimal dose [2]?
Answer: The Optimal dose was 4.4 mg/kg.

Question: What about the T/C [8] of the same compound?
Answer: The T/C was 187%.
